Source: patent US11357749B2, “Methods for treating neutropenia” (Enzychem Lifesciences Corporation, priority 2014, dated 2022)

Tests used:
STAT6 = STAT6 transcriptional activity reporter (luciferase) assay in HepG2 cells; type: cell-based, human; details: HepG2, 10 ng IL-4, PLAG 0.01-10 μg/ml, 12 hours
Experimental: (§1) By using STAT6 inhibitor (S6I), it is confirmed that the reduction of Complement 3 in HepG2 cells (human hepatocyte cell line) is regulated by STAT6. […] It is also confirmed that PLAG has selective efficacy on STAT6 over STAT1. FIG. 1 presents graphs showing STAT1 and STAT6 transcriptional activity in the PLAG treated HepG2 cells. NC refers to the unstimulated control cell. For the STAT1 assay, gene transfected HepG2 (human hepatocyte cell line) is treated with 10 ng of IFN-γ and serially diluted PLAG is added (0.01 μg/ml, 0.1 μg/ml, 1 μg/ml, and 10 μg/ml as shown) to see its effect on gene expression in the stimulated cell. For the STAT6 assay, gene transfected HepG2 cells are treated with 10 ng of IL-4 and again serially diluted PLAG is added (0.01 μg/ml, 0.1 μg/ml, 1 μg/ml, and 10 μg/ml as shown) to see its effect on gene expression in the stimulated cell. The assay is carried out following 12 hours incubation of treated cells.

STAT1 = STAT1 transcriptional activity reporter assay in HepG2 cells; type: cell-based, human; details: HepG2, 10 ng IFN-γ, PLAG 0.01-10 μg/ml, 12 hours
Experimental: as §1

[1] = system: splenic nodules, primitive progenitor cells and megakaryocytes; assay: Colony forming units in spleen (CFUs) assay in heavily irradiated mice; type: in vivo; details: 50 mg/kg/d i.p. or p.o.
Experimental: In order to determine the in vivo effect of PLAG on the recovery of hematopoiesis, a CFUs assay is performed in heavily irradiated mice.

[2] = system: neutrophils and lymphocytes; assay: Neutrophil and lymphocyte ratio in blood of LPS-treated Balb/C mice; type: in vivo; details: LPS 1 mg/kg i.p. + PLAG 5 mg/kg oral, % of total leukocytes
Experimental: To observe the ratio of neutrophil and lymphocyte in the blood of Balb/C mice, 1 mg/kg of lipopolysaccharide (LPS) is injected to mice, i.p. to induce inflammation. 5 mg/kg of PLAG is administered to the mice orally and blood samples are taken at 3 and 13 days after. In addition, for comparison, normal mice that are not treated with PLAG, receive PBS (phosphate buffered saline) and olive oil. The blood samples taken from the mice are treated with EDTA bottle 0.5 ml (Minocollect tube, Greiner bio-one, Austria) and the level of neutrophils (NEU) and lymphocytes (LYM) as a percentage of total leukocytes is measured using automated blood sample analyzer BC-6800 (Mindray, Shenzhen, China).

[3] = system: white blood cells and neutrophils; assay: Cyclophosphamide-induced neutropenia in mice, G-CSF with or without PLAG; type: in vivo; details: PLAG 25 mpk p.o. added to G-CSF 0.25 mpk i.p., cyclophosphamide-treated mice
From the text: Mice receive cyclophosphamide (100 mpk, i.p.) for a period of ten days, with or without G-CSF (0.25 mpk, i.p.) or G-CSF (0.25 mpk, i.p.) plus PLAG (25 mpk, p.o.): […]

bone marrow-derived HSC = assay: In vitro colony formation in bone marrow-derived HSC; type: cell-based

Q: With `CCCCC/C=C\C/C=C\CCCCCCCC(=O)OC(COC(C)=O)COC(=O)CCCCCCCCCCCCCCC` (racemic) [PLAG, 1-palmitoyl-2-linoleoyl-3-acetylglycerol] as the molecule, how does the “transcriptional activity of STAT6” value (STAT6) read?
A: The value was “gradually decreased”.

Q: What about the “STAT1 expression (transcriptional activity)” value (STAT1) of the same molecule?
A: The value was “no effect”.

Q: And the “number of splenic nodules and numbers of primitive progenitor cells and megakaryocytes” value [1]?
A: Its value is “marked increase”.

Q: What about the Lymphocyte ratio [2] of the same molecule?
A: The Lymphocyte ratio was 34.6 ± 7.0%.

Q: What about the “Neutrophil Ratio” value [2] of the same molecule?
A: Its value is 53.2 ± 6.3%.

Q: And the “increase of WBC over G-CSF alone” value [3]?
A: Its value is “more than 60%”.

Q: And the “increase of neutrophils over G-CSF alone” value [3]?
A: The value was “more than 70%”.

Q: What about the colony formation (bone marrow-derived HSC) of the same molecule?
A: Its colony formation is “increased colony formation”.
